Common to all, as to assay type: cell-based, human
Assay [1] deals with Lung (NSCLC, epidermoid) LXFE 937. In words: CFA, LXFE 937. Conditions: PDX/CFA. How it is done: (§1) CFA was performed by Charles River Laboratories (Freiburg, Germany) in 96-well plate format according to a modified two-layer soft agar assay. The origin of the tumor xenografts has been described (Fiebig et al. 1989, incorporated herein by reference). The list of tumors used in this study is detailed in Table 1.

For assay [2], the system named is Skin SCC SXFS 627. The experiment in a line: CFA, SXFS 627. Conditions: PDX/CFA. How it is done:
as §1

For assay [3], the system named is Leukemia (AML) LEXFAM PL-21. In words: CFA, LEXFAM PL-21. The following applies: Cell line/CFA. Here is the method: as §1

In general, IC50 refers to the midpoint of a concentration-inhibition curve. Low readings indicate inhibition by little substance, high ones a need for much substance.

In the case of `CC/C=C\CC1C(=O)CCC1CC(=O)Oc1cccc2cccnc12` (stereo not drawn) [Formula C], the IC50 in assay [1] is 5570 nM; in assay [2] it was 1560 nM; in assay [3], 1740 nM.

These data come from patent US12527782B2, “Use of hexokinase 2/mitochondria-detaching compounds for treating hexokinase-2 (HK2)-expressing cancers” (Vidac Pharma Ltd., priority 2016, dated 2026).
